Assays:
[1] = test system: bone marrow mononuclear cell (BMMNC); experiment: Monocytic proliferation in bone marrow of mice cultured in vitro (SRB method); type: cell-based, KunMing mice; conditions: 1 μg/ml; cultured 5 days; versus blank control
Source text: 15-20 KunMing mice (purchased from Laboratory Animal Center of Zhengzhou University, Henan) of either sex were killed by cervical vertebral dislocation. Bilateral thighbones were isolated and caput femoris was cut off. The marrow was washed repeatedly with serum-free RPMI1640 (Gibco Corp.), the wash solution containing marrow cells was collected, sucked and blew repeatedly with a pipette to make the cells disperse. After standing for a moment, the supernatant was sucked up and centrifugated at 100 g for 3 min to collect the cell pellet. The cells were resuspended in a culture media and brought to a volume of 5 ml. The cell suspension was added to the upper layer of a centrifugal tube containing 5 ml of a lymphocyte separation medium of mice and centrifugated at 400 g for 30 min. The milk-white bone marrow mononuclear cell (BMMNC) layer in the middle of the interface was collected and washed with serum-free medium RPMI1640 for three times to obtain a BMMNC suspension, which was inoculated into a 96-well plate at forty thousand per well after counting. Positive drugs rhG-CSF (recombinant granulocyte colony-stimulating factor, manufactured by QI LU Pharmaceutical Co., LTD., Shandong) or test samples of different concentrations were added, and meanwhile a blank control group without drug was established. They were cultured in a 5% CO2 incubator at 37 for 5 days. Cell proliferation was measured by a conventional SRB (Sigma) method in which OD at 490 nm was measured after being dyed with SRB. The growth rates of cell proliferation after drug treatment were calculated (Growth rate of cell proliferation=experimental group-blank control group/blank control group*100%).

[2] = test system: leukocytes (WBC); experiment: Cyclophosphamide-induced leukopenia in mice: leukocytes (WBC); type: in vivo, Kunming mice; conditions: 0.8 mg/kg; for effect in increasing leukocytes (in words) / leukocytes, Day 1 after modeling / leukocytes, Day 5 after modeling: Experimental Example 3
Description: (§1) Further, in vivo experiments were carried out on the compounds involved in the present invention using animal models of cyclophosphamide-induced leukopenia in mice. Experimental methods are briefed as follows: Healthy Kunming mice, of which half were male and the other half were female, were divided into groups, each group incuding 18 mice, and those mice weighing 18-22 g were selected and divided into groups randomly according to their body weights. Each group was given a different drug, wherein the negative control group and model control group were given physiological saline of the same volume, and the positive control group was treated with granulocyte colony-stimulating factors 40 μg/kg through subcutaneous injection (injection volume: 0.1 ml/10 g). After administration for 3 days, except the negative control group, other treatment groups were treated with 100 mg/kg cyclophosphamide (CY) through lumbar injection once a day for three days to cause a decrease of leukocytes in mice. A drop of blood (20 μl) was taken from posterior orbital venous plexus to detect the hemogram to observe the situation of leukocytes and platelets on day 1, day 3 and/or day 5 after the final lumbar injection of cyclophosphamide (i.e day 1, day 3 and/or day 5 after modeling) (Note: Each treatment group was administrated incessantly). The mice were killed on day 5 after the final lumbar injection of cyclophosphamide (i.e day 5 after modeling), and the leukocytes (WBC) and platelets (PLT) of the hemogram index were counted.
This experiment mainly studies the effect of G-1, G-6 and G-8 of ursolic acid saponin in increasing leukocytes, and compares the therapeutic effects of aglycon of ursolic acid and oleanolic acid and of the compound G-22 which has been disclosed by a patent.
(§2) The purpose of this experiment is to study the effect of G-1, G-3, G-11 and G-12 of ursolic acid saponin and oleanolic acid saponin in increasing platelets, and to observe whether G-11 and G-12 of oleanolic acid saponin have an effect in increasing leukocytes.

[3] = test system: platelets (PLT); experiment: Cyclophosphamide-induced leukopenia in mice: platelets (PLT); type: in vivo, Kunming mice; conditions: Experimental Example 3, 0.8 mg/kg; for difference in increasing platelets compared with G-22 (in words): day 5 after modeling
Description: as §1, §2

[4] = test system: WBC; experiment: 60Co-γ-induced leukopenia in mice: WBC; type: in vivo, Kunming mice
Source text: In order to illustrate the present invention in detail, with a model induced by ^60Co-γ rays, the effects of G-1 and G-22 on leukocytes of chemotherapy-induced-leukopenia mice were compared. The specific operation and the results are as follows.
Healthy Kunming mice, of which half were male and the other half were female, were divided into 6 groups randomly, with 17-18 in each group. Blood was taken from caudal vein to determine the normal hemogram (leucocyte, erythrocyte, platelet and hemoglobin), and adjustments were made according to body weights and hemogram results. The normal control group and model group were given isometric physiological saline once a day for 7 days, and then the post-radiation hemogram was determined. Except the normal control group, other groups were each subjected to a whole body exposure to ^60Co-γ rays at a total dose of 3.0 Gy to prepare the models of leukopenia in mice, followed by further administration for 14 days. The G-CSF group was adminitrated through subcutaneous injection for 5 days from the irradiation day on and the hemogram was determined by taking blood respectively on day 3, day 7 and day 14 after irradiation.

[5] = 0.80 mg/kg i.g., 3.0 Gy whole body

Molecule: C[C@H]1[C@H](C)CC[C@]2(C(=O)O)CC[C@]3(C)C(=CC[C@@H]4[C@@]5(C)CC[C@H](O[C@@H]6O[C@@H](C)[C@H](O)[C@@H](O)[C@H]6O)C(C)(C)[C@@H]5CC[C@]43C)[C@H]12 [Sample G-9, 3-O-(α-L-rhamnopyranosyl) ursolic acid]
- Growth Rate of Proliferation %, 1 μg/ml [1]: 23.4%

Molecule: ursolic acid-28-O-(α-L-arabopyranosyl) ester [Sample G-5]
- Growth Rate of Proliferation %, 1 μg/ml [1]: 20.1%

Molecule: CC1(C)CC[C@]2(C(=O)O)CC[C@]3(C)C(=CC[C@@H]4[C@@]5(C)CC[C@H](O[C@@H]6OC[C@@H](O)[C@H](O)[C@H]6O)C(C)(C)[C@@H]5CC[C@]43C)[C@@H]2C1 [Sample G-15, 3-O-(β-D-xylopyranosyl) oleanolic acid]
- Growth Rate of Proliferation %, 1 μg/ml [1]: 20.6%

Molecule: CC1(C)CC[C@]2(C(=O)O)CC[C@]3(C)C(=CC[C@@H]4[C@@]5(C)CC[C@H](O[C@@H]6OC[C@@H](O)[C@@H](O)[C@@H]6O)C(C)(C)[C@@H]5CC[C@]43C)[C@@H]2C1 [Sample G-16, 3-O-(α-L-arabopyranosyl) oleanolic acid]
- Growth Rate of Proliferation %, 1 μg/ml [1]: 21.6%

Molecule: CC1(C)CC[C@]2(C(=O)O[C@@H]3O[C@H](CO)[C@@H](O)[C@H](O)[C@H]3O)CC[C@]3(C)C(=CC[C@@H]4[C@@]5(C)CC[C@H](O[C@@H]6O[C@H](CO)[C@@H](O)[C@H](O)[C@H]6O)C(C)(C)[C@@H]5CC[C@]43C)[C@@H]2C1 [Sample G-12, 3-O-(β-D-glucopyranosyl) oleanolic acid-28-O-(β-D-glucopyranosyl) ester]
- Growth Rate of Proliferation %, 1 μg/ml [1]: 25.4%
- effect in increasing leukocytes (in words) [2]: obvious effect in increasing leukocytes at day 1 after modeling
- leukocytes, Day 1 after modeling [2]: 1.01 ± 0.55
- leukocytes, Day 5 after modeling [2]: 5.48 ± 4.39
- effect in increasing platelets (in words) [3]: effect in increasing platelets is obvious on day 1 and day 5
- platelets, Day 1 after modelng [3]: 456.88 ± 77.20
- platelets, Day 5 after modeling [3]: 390.86 ± 203.71**★★
- difference in increasing platelets compared with G-22 (in words) [3]: significant difference on day 5 compared with G-22

Molecule: C[C@@H]1CC[C@]2(C(=O)O[C@@H]3O[C@H](CO)[C@@H](O)[C@H](O)[C@H]3O)CC[C@]3(C)C(=CC[C@@H]4[C@@]5(C)CC[C@H](O[C@@H]6OC[C@H](O)[C@H](O)[C@H]6O)C(C)(C)[C@@H]5CC[C@]43C)[C@@H]2[C@]1(C)O [Sample G-22, 3-O-(α-L-arabopyranosyl)-19-hydroxy-ursolic acid-28-O-(β-D-glucopyranosyl) ester, reference compound]
- Growth Rate of Proliferation %, 1 μg/ml [1]: 15.2%
- leukocytes (WBC), Day 3 after modeling ([2]; Experimental Example 2): 5.17 ± 1.77
- leukocytes (WBC), Day 5 after modeling ([2]; Experimental Example 2): 11.87 ± 9.53
- leukocytes (WBC), Day1 after modeling ([2]; Experimental Example 2, CY 100 mg/kg x 3 days): 1.08 ± 0.34Δ
- leukocytes, Day 1 after modeling [2]: 0.92 ± 0.28
- leukocytes, Day 5 after modeling [2]: 8.81 ± 6.44
- platelets, Day 1 after modelng [3]: 491.36 ± 126.28
- platelets, Day 5 after modeling [3]: 210.00 ± 119.38
- effect on leucocyte count of leukopenia mice (in words) ([4]; 0.80 mg/kg gastric perfusion, versus model group, day 7 and day 14 after irradiation): no evident effect
- WBC, 1 week after administration ([4]; 0.80 mg/kg i.g. once a day for 7 days, before irradiation): 9.50 ± 3.17 109/L
- WBC, Day 3 after irradiation [4, 5]: 2.21 ± 0.92 109/L
- WBC, Day 7 after irradiation [4, 5]: 4.08 ± 1.50 109/L
- WBC, Day 14 after irradiation [4, 5]: 5.44 ± 1.13 109/L
- WBC, Normal ([4]; normal hemogram before administration (baseline), 0.80 mg/kg i.g. group): 8.56 ± 2.43 109/L

Molecule: CC1(C)CC[C@]2(C(=O)O)CC[C@]3(C)C(=CC[C@@H]4[C@@]5(C)CC[C@H](O[C@@H]6O[C@H](C(=O)O)[C@@H](O)[C@H](O)[C@H]6O)C(C)(C)[C@@H]5CC[C@]43C)[C@@H]2C1 [Sample G-19, 3-O-(β-D-glucuronopyranosyl) oleanolic acid]
- Growth Rate of Proliferation %, 1 μg/ml [1]: 20.9%

Molecule: CC1(C)CCC2(C(=O)OC3OC(COC4OC(CO)C(O)C(O)C4O)C(O)C(O)C3O)CCC3(C)C(=CCC4C5(C)CCC(O)C(C)(C)C5CCC43C)C2C1 (stereo not drawn) [Sample G-18, oleanolic acid-28-O-(β-gentiobiosyl) ester]
- Growth Rate of Proliferation %, 1 μg/ml [1]: 19.0%

Molecule: CC1(C)CC[C@]2(C(=O)O[C@@H]3O[C@H](CO)[C@@H](O)[C@H](O)[C@H]3O)CC[C@]3(C)C(=CC[C@@H]4[C@@]5(C)CC[C@H](O)C(C)(C)[C@@H]5CC[C@]43C)[C@@H]2C1 [Sample G-17, oleanolic acid-28-O-(β-D-glucopyranosyl) ester]
- Growth Rate of Proliferation %, 1 μg/ml [1]: 20.6%

Molecule: CC1(C)CCC2(C(=O)O)CCC3(C)C(=CCC4C5(C)CCC(OC6OC(CO)C(O)C(O)C6O)C(C)(C)C5CCC43C)C2C1 [Sample G-14, 3-O-(β-D-galactopyranosyl) oleanolic acid]
- Growth Rate of Proliferation %, 1 μg/ml [1]: 19.9%

Molecule: CC1CCC2(C(=O)OC3OC(CO)C(OC4OC(CO)C(O)C(O)C4O)C(O)C3O)CCC3(C)C(=CCC4C5(C)CCC(OC6OCC(O)C(O)C6O)C(C)(C)C5CCC43C)C2C1C [Sample G-4, 3-O-(α-L-arabopyranosyl) ursolic acid-28-O-(β-cellobiosyl) ester]
- Growth Rate of Proliferation %, 1 μg/ml [1]: 18.0%

Molecule: CC1(C)CC[C@]2(C(=O)O[C@@H]3OC[C@H](O)[C@H](O)[C@H]3O)CC[C@]3(C)C(=CC[C@@H]4[C@@]5(C)CC[C@H](O[C@@H]6OC[C@H](O)[C@H](O)[C@H]6O)C(C)(C)[C@@H]5CC[C@]43C)[C@@H]2C1 [Sample G-11, 3-O-(α-L-arabopyranosyl) oleanolic acid-28-O-(α-L-arabopyranosyl) ester]
- Growth Rate of Proliferation %, 1 μg/ml [1]: 26.8%
- effect in increasing leukocytes (in words) [2]: obvious effect in increasing leukocytes at day 1 after modeling
- leukocytes, Day 1 after modeling [2]: 0.94 ± 0.77
- leukocytes, Day 5 after modeling [2]: 7.55 ± 4.28
- effect in increasing platelets (in words) [3]: effect in increasing platelets is obvious on day 1 and day 5
- platelets, Day 1 after modelng [3]: 465.00 ± 99.28
- platelets, Day 5 after modeling [3]: 385.73 ± 198.30**★
- difference in increasing platelets compared with G-22 (in words) [3]: significant difference on day 5 compared with G-22

Molecule: CC1CCC2(C(=O)OC3OC(C)C(O)C(O)C3O)CCC3(C)C(=CCC4C5(C)CCC(OC6OC(C)C(O)C(O)C6O)C(C)(C)C5CCC43C)C2C1C [Sample G-2, 3-O-(α-L-rhamnopyranosyl) ursolic acid-28-O-(α-L-rhamnopyranosyl) ester]
- Growth Rate of Proliferation %, 1 μg/ml [1]: 19.9%

Molecule: CC1CCC2(C(=O)O)CCC3(C)C(=CCC4C5(C)CCC(OC6OC(CO)C(O)C(O)C6O)C(C)(C)C5CCC43C)C2C1C [Sample G-10, 3-O-(β-D-galactopyranosyl) ursolic acid]
- Growth Rate of Proliferation %, 1 μg/ml [1]: 24.2%

Molecule: 3-O-(β-D-glucopyranosyl) oleanolic acid [Sample G-13]
- Growth Rate of Proliferation %, 1 μg/ml [1]: 21.6%

Molecule: CC1CCC2(C(=O)O)CCC3(C)C(=CCC4C5(C)CCC(OC6OC(CO)C(O)C(O)C6O)C(C)(C)C5CCC43C)C2C1C [Sample G-7, 3-O-(β-D-glucopyranosyl) ursolic acid]
- Growth Rate of Proliferation %, 1 μg/ml [1]: 23.7%
